In US11905284B2, “5,7-dihydro-pyrrolo-pyridine derivatives” (PFIZER INC., priority 2016, dated 2024):

Biological target: T1, Human M4 receptors (Homo sapiens, UniProt P08173)
T1 construct: expressed in transfected cells; host or cells: HEK293 cells with Promega GloSensor cAMP technology, stably expressing hM4
T1 sequence (P08173 1-479): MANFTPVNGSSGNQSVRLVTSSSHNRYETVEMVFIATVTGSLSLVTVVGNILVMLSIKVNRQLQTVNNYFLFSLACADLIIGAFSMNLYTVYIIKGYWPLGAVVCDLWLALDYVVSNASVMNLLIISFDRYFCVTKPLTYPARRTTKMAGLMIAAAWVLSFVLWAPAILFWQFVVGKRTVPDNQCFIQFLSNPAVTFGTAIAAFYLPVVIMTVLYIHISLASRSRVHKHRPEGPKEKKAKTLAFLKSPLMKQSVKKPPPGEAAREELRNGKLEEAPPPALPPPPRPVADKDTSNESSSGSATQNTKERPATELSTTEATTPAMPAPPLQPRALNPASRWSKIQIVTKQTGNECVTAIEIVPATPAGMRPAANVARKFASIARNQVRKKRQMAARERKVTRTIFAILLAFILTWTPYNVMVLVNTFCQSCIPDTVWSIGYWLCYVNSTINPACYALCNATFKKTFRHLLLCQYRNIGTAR
Experiment: M4 PAM cAMP assay (GloSensor)
Type: cell-based
Details: for M4 glosensor EC50 Mean Asymptote Maximum (%): Emax = maximum asymptote of fitted dose response curve; for M4 glosensor EC50 Mean Asymptote Maximum (%) / EC50: HEK293 GloSensor cells expressing hM4, with EC20 acetylcholine and isoproterenol, geometric mean of 2-4 determinations unless otherwise indicated; for Emax: HEK293, read-out: M4 glosensor EC50 Mean Asymptote Maximum (%)
Protocol: The M4 PAM binding affinity for the compounds of the present invention was determined utilizing the following biological assay(s):
The M4 cAMP assay was designed to determine the potency and efficacy of muscarinic positive allosteric modulators (PAMs). Human M4 receptors were stably expressed in Human embryonic kidney (HEK293) cells expressed with the Promega GloSensor™ cAMP technology.
HEK293 GloSensor cells expressing hM4 cells were cultured in growth media containing DMEM with 10% FBS, 1% Penicillin/Streptomycin, 500 μg/mL G418, 200 μg/mL Hygomycin B, and 1% Glutamax. […] Plates were incubated at 37 degrees C. and 5% CO2 for use after 24 hours.
Compound Preparation for Agonist Screen:
Each compound was tested at 10 concentrations in duplicate per experiment. Compound plates are spotted with 0.2 μL/well agonist at 400 times the final assay concentration. Positive and negative controls for the compound alone agonist response was 10 μM acetylcholine (Sigma #A2661) and DMSO, respectively. EC20 of acetylcholine was also used to define PAM activities.
Promega GloSensor™ reagent (Promega #E1291) had previously been aliquotted. […] Stock solution was mixed. Culture media in cell plates was discarded, then replaced with 40 μL/well pre-warmed equilibration media, then incubated in the dark at room temperature for 2 hours. During the incubation, stimulation media containing agonist and EC20 acetylcholine was prepared. […] Compounds are now 5 times the final assay concentration. The plate was mixed using a plate agitator. At the end of the 2 hour GloSensor™ incubation, add 10 μL of the CO2-independent media containing agonist, EC20 acetylcholine and isoproterenol to the cell plate. Cell plate was then incubated for 10 minutes at room temperature, and then read using an EnVision plate reader (Perkin Elmer).
Data was exported from the EnVision plate reader. The percent effect for each well was determined using the mean values for the positive and negative controls on each plate for each read, specifically 100*(compound−negative control)/(positive control−negative control). Dose response curves were fitted to the compound percent effect data using a 4-parameter logistic fit model. Data was reported as EC50 and Emax, with the Emax as the maximum asymptote of the fitted dose response curve.

Row | Structure (SMILES) | M4 glosensor EC50 Mean Asymptote Maximum (%) | EC50 [nM] | Emax [%]
1 | Cc1cc(C)c2c(n1)CN(C(=O)CC1CN(c3cccnc3)C1)C2C (single isomer, unassigned) [Example 15, 2-[1-(Pyridin-3-yl)azetidin-3-yl]-1-(2,4,5-trimethyl-5,7-dihydro-6H-pyrrolo[3,4-b]pyridin-6-yl)ethanone] | 106 | 28 | 
2 | COCc1nc2c(c(C)c1Cl)CN(C(=O)CC1CN(c3ccnc(C(F)F)c3)C1)C2 [Example 47, 1-[3-chloro-2-(methoxymethyl)-4-methyl-5,7-dihydro-6H-pyrrolo[3,4-b]pyridin-6-yl]-2-{1-[2-(difluoromethyl)pyridin-4-yl]azetidin-3-yl}ethanone] |  | 2.19 | 110
3 | Cc1nc2c(c(C)c1Cl)CN(C(=O)C[C@@H]1C[C@H]1c1cncnc1)C2 (single isomer, unassigned) [Example 51, 1-(3-chloro-2,4-dimethyl-5,7-dihydro-6H-pyrrolo[3,4-b]pyridin-6-yl)-2-[trans-2-(pyrimidin-5-yl)cyclopropyl]ethanone] |  | 4.75 | 102
4 | COCc1cc(C)c2c(n1)CN(C(=O)CC1CN(c3ccnc(C(F)(F)F)c3)C1)C2 [Example 7, 1-[2-(methoxymethyl)-4-methyl-5,7-dihydro-6H-pyrrolo[3,4-b]pyridin-6-yl]-2-{1-[2-(trifluoromethyl)pyridin-4-yl]azetidin-3-yl}ethanone] |  | 17.4 | 99.8
5 | Cc1cc(C)c2c(n1)CN(C(=O)C[C@H]1C[C@@H]1c1ccccc1)C2 (racemic) [Example 77, 1-(2,4-dimethyl-5,7-dihydro-6H-pyrrolo[3,4-b]pyridin-6-yl)-2-[trans-2-phenylcyclopropyl]ethanone] |  | 2880 | 176
6 | COCc1nc2c(c(C)c1Cl)CN(C(=O)CC1CN(c3ccc(F)nc3)C1)C2 [Example 49, 1-[3-chloro-2-(methoxymethyl)-4-methyl-5,7-dihydro-6H-pyrrolo[3,4-b]pyridin-6-yl]-2-[1-(6-fluoropyridin-3-yl)azetidin-3-yl]ethanone] |  | 11.2 | 101
7 | COCc1cc(C)c2c(n1)CN(C(=O)CC1CN(c3ccnc(C(F)F)c3)C1)C2 [Example 50, 2-{1-[2-(difluoromethyl)pyridin-4-yl]azetidin-3-yl}-1-[2-(methoxymethyl)-4-methyl-5,7-dihydro-6H-pyrrolo[3,4-b]pyridin-6-yl]ethanone] |  | 14.3 | 99.2
8 | Cc1cc(C)c2c(n1)CN(C(=O)CC1Cc3ccccc3C1)C2 [Example 56, 2-(2,3-dihydro-1H-inden-2-yl)-1-(2,4-dimethyl-5,7-dihydro-6H-pyrrolo[3,4-b]pyridin-6-yl)ethanone] |  | 209 | 71.8
9 | Cc1c(C(F)F)nc2c(c1C)CN(C(=O)OC1CN(c3ncns3)C1)C2 [Example 63, 1-(1,2,4-thiadiazol-5-yl)azetidin-3-yl 2-(difluoromethyl)-3,4-dimethyl-5,7-dihydro-6H-pyrrolo[3,4-b]pyridine-6-carboxylate] |  | 42.4 | 51.8
10 | COCc1cc(C)c2c(n1)CN(C(=O)CC1CN(c3ccnc(OC(F)F)c3)C1)C2 [Example 8, 2-{1-[2-(Difluoromethoxy)pyridin-4-yl]azetidin-3-yl}-1-[2-(methoxymethyl)-4-methyl-5,7-dihydro-6H-pyrrolo[3,4-b]pyridin-6-yl]ethanone] |  | 22.7 | 99.1
11 | Cc1nc2c(c(C)c1C)CN(C(=O)C[C@@H]1C[C@H]1c1cccnc1)C2 (single isomer, unassigned) [Example 37, 2-[trans-2-(pyridin-3-yl)cyclopropyl]-1-(2,3,4-trimethyl-5,7-dihydro-6H-pyrrolo[3,4-b]pyridin-6-yl)ethanone] | 85.8 | 1790 | 
12 | Cc1cc(C)c2c(n1)CN(C(=O)CC1CN(c3ccc(C4(C)COC4)cc3)C1)C2 [Example 68, 1-(2,4-dimethyl-5,7-dihydro-6H-pyrrolo[3,4-b]pyridin-6-yl)-2-{1-[4-(3-methyloxetan-3-yl)phenyl]azetidin-3-yl}ethanone] |  | 485 | 99.4
13 | Cc1cc(C)c2c(n1)CN(C(=O)CC1CN(c3ccc(C(O)C4CC4)cc3)C1)C2 (stereo not drawn) [Example 73, 2-(1-{4-[cyclopropyl(hydroxy)methyl]phenyl}azetidin-3-yl)-1-(2,4-dimethyl-5,7-dihydro-6H-pyrrolo[3,4-b]pyridin-6-yl)ethanone] |  | 90.5 | 95.3
14 | Cc1nc2c(c(C)c1C)CN(C(=O)OC1CN(c3ncns3)C1)C2 [Example 64, 1-(1,2,4-thiadiazol-5-yl)azetidin-3-yl 2,3,4-trimethyl-5,7-dihydro-6H-pyrrolo[3,4-b]pyridine-6-carboxylate] |  | 40.2 | 88.5
15 | COc1nc2c(c(C)c1C)CN(C(=O)CC1CN(c3cccnc3)C1)C2 [Example 28, 1-(2-methoxy-3,4-dimethyl-5,7-dihydro-6H-pyrrolo[3,4-b]pyridin-6-yl)-2-[1-(pyridin-3-yl)azetidin-3-yl]ethanone] |  | 21.6 | 116
